Source: ChEMBL document CHEMBL1151669, “Caparratriene, an active sesquiterpene hydrocarbon from Ocotea caparrapi” (J Nat Prod, 1996)
Calls of active or inactive are those of the source. The rule behind the calls is not given here.

Key:
[1] = system: CCRF-CEM; assay: Growth inhibition of human CEM cells incubated in presence of light after 24 hrs by trypan blue staining; format: functional, cell-based
[2] = system: CCRF-CEM; assay: Growth inhibition of human CEM cells after 24 hrs by trypan blue staining; format: functional, cell-based

IC50 [2]: 3000 nM
SMILES: C/C=C(C)/C=C/C[C@H](C)CCC=C(C)C [CAPARRATRIENE]
Activity [1]: Active
